Experimental data published in patent publication US20240109900A1, “AZABICYCLIC SHP2 INHIBITORS” (IRBM S.P.A., priority 2021, published 2024).
Where two headings read alike, the source gives them in different places.

Key:
[1] = tested on: ERK phosphorylation in KYSE-520 cells; test: Phospho-ERK cellular assay; format: cell-based; details: KYSE-520 cells, 2 h at 37° C., phospho-ERK1/2 (Thr202/Tyr204) TR-FRET, read-out: PERK IC50
Summary of the method: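 TR-FRET read-out of ERK1/2 Thr202/Tyr204 phosphorylation was taken after overnight antibody incubation at room temperature. Before that, KYSE-520 cells were treated 2 h at 37 °C with compound dilutions and lysed 30 min. Percent inhibition relative to vehicle and cell-free wells was fitted four-parametrically to give IC50.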

[2] = target: SHP-2 enzyme (Met1-Leu525) (Homo sapiens (Human), UniProt Q06124); test: SHP2 inhibition enzymatic assay; format: biochemical; details: 0.5 nM SHP-2 activated by 500 nM IRS1 peptide, 75 μM DiFMUP substrate; read-out: SHP2wt-IC50
Summary of the method: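 SHP-2 (Met1-Leu525), 0.5 nM, activated with 500 nM IRS1 bis-phosphopeptide, preincubated 30 min with compounds in HEPES pH 7.2 buffer with 5 mM DTT. 75 μM DiFMUP added for 30 min at room temperature, stopped with bpV; fluorescence read. IC50 from four-parameter logistic fit of % inhibition.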

Sequence of SHP-2 enzyme (Met1-Leu525) (Q06124 1-525): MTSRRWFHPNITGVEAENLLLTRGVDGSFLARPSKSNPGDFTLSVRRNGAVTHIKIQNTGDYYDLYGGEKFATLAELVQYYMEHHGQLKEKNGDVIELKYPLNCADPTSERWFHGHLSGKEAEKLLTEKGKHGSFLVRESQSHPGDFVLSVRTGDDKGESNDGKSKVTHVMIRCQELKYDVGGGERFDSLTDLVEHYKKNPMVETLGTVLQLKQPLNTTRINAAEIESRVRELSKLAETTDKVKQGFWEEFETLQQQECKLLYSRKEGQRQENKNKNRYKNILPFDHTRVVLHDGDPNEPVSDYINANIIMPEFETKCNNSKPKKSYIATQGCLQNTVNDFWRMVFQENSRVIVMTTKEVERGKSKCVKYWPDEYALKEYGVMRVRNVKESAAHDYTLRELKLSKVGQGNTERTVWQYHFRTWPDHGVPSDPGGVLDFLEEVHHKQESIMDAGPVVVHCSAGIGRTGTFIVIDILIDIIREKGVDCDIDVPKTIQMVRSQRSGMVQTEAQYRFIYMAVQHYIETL

| IC50 ([1]; Homo sapiens, KYSE-520, 2 h) [nM] | IC50 [2] [nM] | IC50 [1] [nM] | Compound |
| --- | --- | --- | --- |
| < 1000 | < 500 | – | COc1cc(-c2ccc3nc(N4CC[C@@H]5[C@H](C4)[C@@]5(CN)c4ccccc4F)cnc3n2)cc2cccnc12 [Example 435, ((1S,6R,7R)-7-(2-fluorophenyl)-3-(6-(8-methoxyquinolin-6-yl)pyrido[2,3-b]pyrazin-2-yl)-3-azabicyclo[4.1.0]heptan-7-yl)methanamine] |
| < 1000 | < 500 | – | Cc1c(-c2n[nH]c3nc(N4CC[C@@H]5[C@H](C4)[C@@]5(CN)c4ccccc4F)cnc23)ccc2c1n(C)c(=O)n2C [Example 261, 5-(6-((1S,6R,7R)-7-(aminomethyl)-7-(2-fluorophenyl)-3-azabicyclo[4.1.0]heptan-3-yl)-1H-pyrazolo[3,4-b]pyrazin-3-yl)-1,3,4-trimethyl-1,3-dihydro-2H-benzo[d]imidazol-2-one] |
| < 1000 | < 500 | – | NC[C@]1(c2ccccc2F)[C@@H]2CCN(c3cnc4c(-c5ccnc(F)c5Cl)n[nH]c4n3)C[C@@H]21 [Example 509, ((1S,6R,7R)-3-(3-(3-chloro-2-fluoropyridin-4-yl)-1H-pyrazolo[3,4-b]pyrazin-6-yl)-7-(2-fluorophenyl)-3-azabicyclo[4.1.0]heptan-7-yl)methanamine] |
| < 1000 | < 500 | – | NC[C@]1(c2ccccc2F)[C@@H]2CCN(c3cnc4c(-c5nccc6ncccc56)n[nH]c4n3)C[C@@H]21 [Example 153, ((1S,6R,7R)-3-(3-(1,6-naphthyridin-5-yl)-1H-pyrazolo[3,4-b]pyrazin-6-yl)-7-(2-fluorophenyl)-3-azabicyclo[4.1.0]heptan-7-yl)methanamine] |
| < 1000 | < 500 | – | CNC(=O)c1ccc(-c2n[nH]c3nc(N4CC[C@@H]5[C@H](C4)[C@@]5(CN)c4ccccc4F)cnc23)c(Cl)c1 [Example 273, 4-(6-((1S,6R,7R)-7-(aminomethyl)-7-(2-fluorophenyl)-3-azabicyclo[4.1.0]heptan-3-yl)-1H-pyrazolo[3,4-b]pyrazin-3-yl)-3-chloro-N-methylbenzamide] |
| < 1000 | < 500 | – | COc1ccc(-c2n[nH]c3nc(N4CC[C@@H]5[C@H](C4)[C@@]5(CN)c4ccccc4F)cnc23)c2ccc(C)nc12 [Example 201, ((1S,6R,7R)-7-(2-fluorophenyl)-3-(3-(8-methoxy-2-methylquinolin-5-yl)-1H-pyrazolo[3,4-b]pyrazin-6-yl)-3-azabicyclo[4.1.0]heptan-7-yl)methanamine] |
| < 1000 | < 500 | – | COc1ccc2cc(-c3n[nH]c4nc(N5CC[C@@H]6[C@H](C5)[C@@]6(CN)c5cc(C)on5)cnc34)ccc2n1 [Example 149, ((1S,6R,7S)-3-(3-(2-methoxyquinolin-6-yl)-1H-pyrazolo[3,4-b]pyrazin-6-yl)-7-(5-methylisoxazol-3-yl)-3-azabicyclo[4.1.0]heptan-7-yl)methanamine] |
| < 1000 | < 500 | – | NC[C@]1(c2ccccc2F)[C@@H]2CCN(c3cnc4c(-c5ccnc(N6CC[C@H](CO)C6)c5Cl)n[nH]c4n3)C[C@@H]21 [Example 386, ((S)-1-(4-(6-((1S,6R,7R)-7-(aminomethyl)-7-(2-fluorophenyl)-3-azabicyclo[4.1.0]heptan-3-yl)-1H-pyrazolo[3,4-b]pyrazin-3-yl)-3-chloropyridin-2-yl)pyrrolidin-3-yl)methanol] |
| < 1000 | < 500 | – | NC[C@]1(c2ccccc2F)[C@@H]2CCN(c3cnc4c(-c5ccc6c(c5)CC(=O)N6)n[nH]c4n3)C[C@@H]21 [Example 187, 5-(6-((1S,6R,7R)-7-(aminomethyl)-7-(2-fluorophenyl)-3-azabicyclo[4.1.0]heptan-3-yl)-1H-pyrazolo[3,4-b]pyrazin-3-yl)indolin-2-one] |
| < 1000 | < 500 | – | NC[C@]1(c2ccccc2F)[C@@H]2CCN(c3cnc4c(-c5cc(F)c(O)c(F)c5)n[nH]c4n3)C[C@@H]21 [Example 322, 4-(6-((1S,6R,7R)-7-(aminomethyl)-7-(2-fluorophenyl)-3-azabicyclo[4.1.0]heptan-3-yl)-1H-pyrazolo[3,4-b]pyrazin-3-yl)-2,6-difluorophenol] |
| – | < 500 | < 1000 | Cc1csc([C@@]2(CN)[C@@H]3CN(c4cnc5c(-c6ccc7c(cnn7C(F)F)c6Cl)n[nH]c5n4)C[C@@H]32)n1 [Example 506] |

Further lines, the compound ahead of its results:

| Compound | IC50 ([1]; Homo sapiens, KYSE-520, 2 h) [nM] | IC50 [2] [nM] | IC50 [1] [nM] |
| --- | --- | --- | --- |
| NC[C@]1(c2ncccc2F)[C@@H]2CCN(c3cnc4c(-c5cccn6nccc56)n[nH]c4n3)C[C@@H]21 [Example 140, ((1S,6R,7S)-7-(3-fluoropyridin-2-yl)-3-(3-(pyrazolo[1,5-a]pyridin-4-yl)-1H-pyrazolo[3,4-b]pyrazin-6-yl)-3-azabicyclo[4.1.0]heptan-7-yl)methanamine] | < 1000 | < 500 | – |
| Cc1cc([C@@]2(CN)[C@@H]3CCN(c4cnc5c(-c6ccc7nn(C)cc7c6Cl)n[nH]c5n4)C[C@@H]32)no1 [Example 46, ((1S,6R,7S)-3-(3-(4-chloro-2-methyl-2H-indazol-5-yl)-1H-pyrazolo[3,4-b]pyrazin-6-yl)-7-(5-methylisoxazol-3-yl)-3-azabicyclo[4.1.0]heptan-7-yl)methanamine] | < 1000 | < 500 | – |
| NCC1(c2ncccn2)C2CCN(c3cnc4c(-c5cccc(Cl)c5Cl)n[nH]c4n3)CC21 (centres unmarked) [Example 83, (3-(3-(2,3-dichlorophenyl)-1H-pyrazolo[3,4-b]pyrazin-6-yl)-7-(pyrimidin-2-yl)-3-azabicyclo [4.1.0]heptan-7-yl)methanamine] | < 1000 | < 500 | – |
| NCC1(c2ccsc2)C2CCN(c3cnc4c(-c5cccc(Cl)c5Cl)n[nH]c4n3)CC21 (centres unmarked) [Example 94, (3-(3-(2,3-dichlorophenyl)-1H-pyrazolo[3,4-b]pyrazin-6-yl)-7-(thiophen-3-yl)-3-azabicyclo [4.1.0]heptan-7-yl)methanamine] | < 1000 | < 500 | – |
| NCC1(c2ccccc2)C2CCN(c3cnc4c(-c5cccc(Cl)c5Cl)n[nH]c4n3)CC21 (centres unmarked) [Example 80, (3-(3-(2,3-dichlorophenyl)-1H-pyrazolo[3,4-b]pyrazin-6-yl)-7-phenyl-3-azabicyclo[4.1.0]heptan-7-yl)methanamine] | < 1000 | < 500 | – |
| COc1cnc2ccc(-c3n[nH]c4nc(N5CC[C@@H]6[C@H](C5)[C@@]6(CN)c5ccccc5F)cnc34)c(Cl)c2n1 [Example 119, ((1S,6R,7R)-3-(3-(5-chloro-3-methoxyquinoxalin-6-yl)-1H-pyrazolo[3,4-b]pyrazin-6-yl)-7-(2-fluorophenyl)-3-azabicyclo[4.1.0]heptan-7-yl)methanamine] | < 1000 | < 500 | – |
| Cc1cc(C2(CN)C3CCN(c4cnc5c(-c6ccc(Cl)c7cnccc67)n[nH]c5n4)CC32)no1 (centres unmarked) [Example 34, (3-(3-(8-chloroisoquinolin-5-yl)-1H-pyrazolo[3,4-b]pyrazin-6-yl)-7-(5-methylisoxazol-3-yl)-3-azabicyclo[4.1.0]heptan-7-yl)methanamine] | < 1000 | < 500 | – |
| Cc1cc(C2(CN)C3CCN(c4cnc5c(-c6ccnc(Cl)c6Cl)n[nH]c5n4)CC32)no1 (centres unmarked) [Example 31, (3-(3-(2,3-dichloropyridin-4-yl)-1H-pyrazolo[3,4-b]pyrazin-6-yl)-7-(5-methylisoxazol-3-yl)-3-azabicyclo[4.1.0]heptan-7-yl)methanamine] | < 1000 | < 500 | – |
